Tests used:
Format in all cases: biochemical
[1] = target: butyrylcholine esterase (BCE) (Equus caballus, UniProt P81908); experiment: Hydrolysis of heme bis choline ester by butyrylcholine esterase, followed by HPLC; conditions: bis choline ester with BCE (50 units) in phosphate buffer pH 7.0, HPLC at 400 nm
Description: To confirm enzymatic hydrolysis of heme bis choline ester, a sample of bis choline ester in methanol was added to a solution of butyrylcholine esterase (BCE) (50 units) in phosphate buffer (pH 7.0). The progress of the hydrolysis was determined by HPLC analysis of the reaction mixture using a Waters Xterra C18 reverse phase column (4.6×50 mm). A gradient elution was performed starting with 95:5 water (+0.1% TFA):acetonitrile (+0.1% TFA) up to 0:100 over 10 minutes followed by isocratic elution with acetonitrile (+0.1% TFA) for 5 minutes. […] Under these conditions the bis ester elutes first (tR=5.2 min) followed by the monoester (5.9 min) and heme (6.6 min).

[2] = target: T1, apo-horseradish peroxidase (apo-HRP) (Armoracia rusticana, UniProt P00433); experiment: Signal enhancement from HRP-based cascade using a chromogenic substrate (TMB); conditions: 6 minutes after adding TMB liquid substrate; mixtures pre-incubated 16 hours at room temperature
T1 sequence (P00433 31-338): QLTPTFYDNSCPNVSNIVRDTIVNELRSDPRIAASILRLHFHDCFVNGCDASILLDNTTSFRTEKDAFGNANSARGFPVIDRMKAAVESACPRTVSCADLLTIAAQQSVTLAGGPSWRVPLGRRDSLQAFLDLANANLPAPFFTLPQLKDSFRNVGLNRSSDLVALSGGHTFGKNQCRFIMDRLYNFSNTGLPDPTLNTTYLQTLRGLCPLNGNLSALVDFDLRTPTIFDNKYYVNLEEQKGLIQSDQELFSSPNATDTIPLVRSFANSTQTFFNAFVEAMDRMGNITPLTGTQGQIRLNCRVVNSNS
Description: The samples in Table 2 were prepared from the following stock solutions. A 120 μM stock solution of apo-HRP was prepared by adding 2 mL phosphate-buffered saline (PBS, Pierce 28372) to 10 mg lyophilized apo-HRP (Sigma 6278, MW=43000 g/mol). A 250 μM stock solution of horseradish peroxidase type VI (HRP, Sigma P8375, MW=44000 g/mol) was prepared by solubilizing 11 mg lyophilized protein in 1 mL 100 mM sodium phosphate, pH 7.0. A 1 kU/mL stock solution of butyrylcholine esterase was prepared by dissolving 1 kU lyophilized protein (Sigma C1057) in 1 mL phosphate-buffered saline (PBS, Pierce 28372). […] The 1 cm-path length absorbance of this 10% methanol solution was measured to be 17 absorbance units (au) at 390 nm using a NanoDrop-1000 Spectrophotometer. […]
Samples A1, A2, B1, and B2 were each combined with 95 μL 3,3′,5,5′-tetramethylbenzidine (TMB) liquid substrate system (Sigma T8665), which includes hydrogen peroxide. After 6 minutes OD was determined at 650 nm in a 96-well format using a SpectraMax M2 plate reader (Molecular Devices). These signals are recorded in Table 2 above.
Relative signal enhancement was calculated by subtracting appropriate background signals from wells A1 and A2, and then taking a ratio. […] The calculated signal enhancement is thus equal to (A1−B2)/(A2−B1), which corresponds to (1.05−0.16)/(0.10−0.04)=15. […]

[3] = target: T1, apo-horseradish peroxidase (apo-HRP); experiment: Recombination of heme and apo-HRP, TMB colorimetry; conditions: heme mixed with 30 pmol apo-horseradish peroxidase, 30 min, background corrected
Description: A 250 μM stock solution of horseradish peroxidase type VI (HRP, Sigma P8375, MW=44000 g/mol) was prepared by solubilizing 11 mg of lyophilized protein in 1 mL 100 mM sodium phosphate, pH 7.0.
Heme was extracted from horseradish peroxidase type VI (Sigma P8375) according to the method of Teale (Biochim. Biophys. Acta 35, 543, (1959)). The resultant apo-HRP was dialyzed into 100 mM sodium phosphate, pH 7.0, with 0.1 mM calcium chloride. The concentration of this stock apo-HRP solution was estimated from absorbance at 280 nm as 30 μM by assuming an extinction coefficient of 20000 cm^−1 M^−1 (Lasagna et al., Biophys. J. 76, 443, (1999)).
Within an hour before performing the peroxidase assay a fresh stock solution of approximately 1 mM heme (MW 652 g/mol) was prepared by first dissolving 38.9 mg heme (Sigma H5533) in 1 mL of 1.0M NaOH and then mixing 100 μL of the resulting solution with 6 mL 100 mM borate buffer, pH 9.1.
The absorbance data in Table 4 was acquired using a SpectraMax M2 plate reader (Molecular Devices) in 96-sample format. The HRP stock solution was diluted serially with 100 mM sodium phosphate, pH 7.0, to make 2000, 500 and 50 pM solutions. 10 μL of each solution was then mixed with 90 μL 3,3′,5,5′-tetramethylbenzidine (TMB) liquid substrate system (Sigma T8665) to define t=0. The absorbance at 650 nm was measured after 30 min and corrected for the absorbance of TMB solution without added HRP.
The heme stock solution was diluted serially with 100 mM borate buffer, pH 9.1, to make 2000 pM, 500 pM, and 50 pM solutions. 10 μL of each solution was first mixed with 1 μL of the apo-HRP stock solution and then immediately mixed with 90 μL TMB liquid substrate system to define t=0. The absorbance at 650 nm was measured after 30 min and corrected for the absorbance of a mixture of apo-HRP and TMB liquid substrate system without added heme.

[4] = target: T1, apo-horseradish peroxidase (apo-HRP); experiment: Blocking and rescue of peroxidase activity with a chemiluminescent substrate; conditions: for Rescue of peroxidase activity of apo-HRP plus heme bis choline ester: esterase added to apo-HRP and heme bis choline ester
Description: A 1-kU/mL stock solution of butyrylcholine esterase was prepared by dissolving 1 kU of lyophilized protein (Sigma C1057) in 1 mL phosphate-buffered saline (PBS, Pierce 28372). An activity of 900 U per mg protein and MW=250000 g/mol was assumed and the concentration of the resultant solution was estimated as 4 μM.
A 1 kU/mL stock solution of acetylcholine esterase was prepared by dissolving 1 kU lyophilized protein (Sigma C2888) in 1 mL phosphate-buffered saline (PBS, Pierce 28372). An activity of 1000 U per mg protein and MW=280000 g/mol was assumed and the concentration of the resultant solution was estimated as 4 μM.
A fresh 1 mM solution of heme was prepared in 100 mM borate buffer, pH 9.1, as described in Example 5. The 1 cm-path length absorbance of this solution was measured to be 40 at 390 nm using a NanoDrop-1000 Spectrophotometer (NanoDrop Technologies). A 0.1 mM heme solution was then prepared by mixing 100 μL of this stock with 900 μL in PBS.
Less than 1 mg heme bis choline ester was dissolved in 100 μL methanol. 10 μL of the methanol solution was then mixed with 90 μL 100 mM borate buffer, pH 9.1. The 1 cm-path length absorbance of this 10% methanol solution was measured to be 17 absorbance units (au) at 390 nm using a NanoDrop-1000 Spectrophotometer. Assuming the extinction coefficient of heme bis choline ester in 10% methanol was not substantially different than that of heme in PBS, a 0.1 mM solution of heme bis choline ester was then prepared by mixing 23.5 μL of the 10% methanol solution with 77.5 μL PBS.
Solutions of 0.3 μM apo-HRP, 10 μM heme and 10 μM heme bis choline ester in PBS were prepared by dilution of these stock solutions with PBS. […]
90 μL of freshly mixed chemiluminescent substrate (Sigma CPS260, an enhanced luminol product with a stabilized peroxide buffer solution) was added to reaction mixtures 1-6, which were allowed to incubate at room temperature for 5 minutes and the luminescence units (LU) for each was determined with a SpectraMax M2 plate reader in a 96-well format (Molecular Devices), shown below in Table 5.

butyrylcholine esterase (BCE), sequence (P81908 whole entry): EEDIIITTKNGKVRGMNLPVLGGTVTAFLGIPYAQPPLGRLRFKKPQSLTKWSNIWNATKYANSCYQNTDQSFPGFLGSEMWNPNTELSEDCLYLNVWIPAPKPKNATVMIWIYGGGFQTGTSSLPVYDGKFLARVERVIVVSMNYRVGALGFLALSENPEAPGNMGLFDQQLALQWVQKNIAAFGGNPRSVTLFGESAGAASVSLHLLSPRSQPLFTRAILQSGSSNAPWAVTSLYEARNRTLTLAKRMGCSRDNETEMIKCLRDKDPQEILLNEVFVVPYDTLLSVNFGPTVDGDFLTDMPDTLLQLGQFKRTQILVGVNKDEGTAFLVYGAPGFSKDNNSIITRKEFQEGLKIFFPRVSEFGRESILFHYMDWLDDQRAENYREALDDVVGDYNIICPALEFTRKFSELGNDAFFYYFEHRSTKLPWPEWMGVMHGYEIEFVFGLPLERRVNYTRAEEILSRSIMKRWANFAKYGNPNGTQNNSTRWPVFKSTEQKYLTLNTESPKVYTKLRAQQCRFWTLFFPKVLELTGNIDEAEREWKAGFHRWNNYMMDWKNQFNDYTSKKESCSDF

## heme mono choline ester [Mono ester]
[1]; 0.75 hr
  Hydrolysis vs. Time, converted to concentration: 28 AUC units
[1]; 2.75 hr
  Hydrolysis vs. Time, converted to concentration: 29 AUC units
[1]; 21 hr
  Hydrolysis vs. Time, converted to concentration: 24 AUC units

## A2: 5 μL of 0.13 nM HRP (0.7 fmol) [Sample A2]
[2]
  OD 650 nm: 0.10

## C=CC1=C(C)c2cc3[n-]c(cc4[n-]c(cc5nc(cc1n2)C(C)=C5C=C)c(C)c4CCC(=O)O)c(CCC(=O)O)c3C.[Fe+2] [Heme, heme]
[3]; 5 fmol
  OD 650 nm: 0.07
[3]; 20 fmol
  OD 650 nm: 0.79
[1]; 0.75 hr
  HPLC peak area (hydrolysis progress): 7 AUC units
[1]; 2.75 hr
  HPLC peak area (hydrolysis progress): 12 AUC units
[1]; 21 hr
  HPLC peak area (hydrolysis progress): 21 AUC units

## horseradish peroxidase: horseradish peroxidase type VI (Sigma P8375)
[3]; 5 fmol
  OD 650 nm: 0.88
[3]; 20 fmol
  OD 650 nm: 3.4

## BCE: butyrylcholine esterase (Sigma C1057)
[4]
  Rescue of peroxidase activity of apo-HRP plus heme bis choline ester: rescued

## heme bis choline ester [Bis ester]
[4]; sample 1 versus sample 4, 10-fold excess of heme bis choline ester
  Peroxidase activity of mixture with apo-HRP compared with heme: less peroxidase activity
[1]; 0 hr
  Hydrolysis vs. Time, converted to concentration: 100 AUC units
[1]; 0.75 hr
  Hydrolysis vs. Time, converted to concentration: 60 AUC units
[1]; 2.75 hr
  Hydrolysis vs. Time, converted to concentration: 52 AUC units
[1]; 21 hr
  Hydrolysis vs. Time, converted to concentration: 41 AUC units

## acetylcholine esterase: acetylcholine esterase (Sigma C2888)
[4]
  Rescue of peroxidase activity of apo-HRP plus heme bis choline ester: did not demonstrably rescue peroxidase activity
